Assay results reported in PubChem BioAssay AID248 (DTP/NCI, 2004).
Several values for one entry are separate records, joined by “and”; a condition that tells them apart may be missing. Equal entries are not always repeated. Inconclusive results and toxic doses are left out.

Tested on: L1210 leukemia ip in BDF1 mice, survival T/C
Experiment: NCI In Vivo Anticancer Drug Screen. Data for tumor model L1210 Leukemia (intraperitoneal) in B6D2F1 (BDF1) mice
Conditions: endpoint: mean survival time, higher = longer survival
In short: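 Value reflects the ratio of survival in compound-treated mice to survival in vehicle-treated controls, with both groups carrying the same transplanted tumor.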

[1] = dose: 100.0 mg/kg/injection, schedule: Q01DX001 (ip), vehicle: carboxymethylcellulose (CMC)
[2] = dose: 100.0 mg/kg/injection, schedule: Q01DX009 (ip), vehicle: saline with Tween-80
[3] = dose: 100.0 mg/kg/injection, schedule: Q04DX003 (ip), vehicle: saline with Tween-80
[4] = dose: 200.0 mg/kg/injection, schedule: Q01DX009 (ip), vehicle: saline with Tween-80
[5] = dose: 200.0 mg/kg/injection, schedule: Q04DX003 (ip), vehicle: saline with Tween-80
[6] = dose: 400.0 mg/kg/injection, schedule: Q01DX009 (ip), vehicle: saline with Tween-80
[7] = dose: 400.0 mg/kg/injection, schedule: Q04DX003 (ip), vehicle: saline with Tween-80
[8] = dose: 100.0 mg/kg/injection, schedule: Q04DX002 (ip), vehicle: saline with Tween-80
[9] = dose: 200.0 mg/kg/injection, schedule: Q04DX002 (ip), vehicle: saline with Tween-80
[10] = dose: 50.0 mg/kg/injection, schedule: Q01DX009 (ip), vehicle: saline
[11] = dose: 100.0 mg/kg/injection, schedule: Q01DX009 (ip), vehicle: saline
[12] = dose: 150.0 mg/kg/injection, schedule: Q01DX001 (ip), vehicle: carboxymethylcellulose (CMC)

Compound: CC(=S)c1ccccc1
- T/C (dose: 50.0 mg/kg/injection, schedule: Q04DX003 (ip), vehicle: Klucel (hydroxypropylcellulose) (HPC)): 102 % of control
- T/C (dose: 100.0 mg/kg/injection, schedule: Q04DX003 (ip), vehicle: Klucel (hydroxypropylcellulose) (HPC)): 107 % of control
- T/C (dose: 200.0 mg/kg/injection, schedule: Q04DX003 (ip), vehicle: Klucel (hydroxypropylcellulose) (HPC)): 92 % of control
- T/C (dose: 400.0 mg/kg/injection, schedule: Q04DX003 (ip), vehicle: Klucel (hydroxypropylcellulose) (HPC)): 97 % of control

Compound: C=CCCCCCCCCC(=O)O (tested in a mixture with another compound)
- T/C (dose: 10.0 mg/kg/injection, schedule: Q01DX001 (ip), vehicle: carboxymethylcellulose (CMC)): 93 % of control
- T/C (dose: 20.0 mg/kg/injection, schedule: Q01DX001 (ip), vehicle: carboxymethylcellulose (CMC)): 104 % of control
- T/C (dose: 40.0 mg/kg/injection, schedule: Q01DX001 (ip), vehicle: carboxymethylcellulose (CMC)): 106 % of control
- T/C (dose: 80.0 mg/kg/injection, schedule: Q01DX001 (ip), vehicle: carboxymethylcellulose (CMC)): 101 % of control
- T/C [1]: 97 % of control

Compound: O=C(NO)Nc1ccccc1
- T/C (dose: 50.0 mg/kg/injection, schedule: Q01DX Z (ip), vehicle: carboxymethylcellulose (CMC)): 94 % of control
- T/C [2]: 98 % of control
- T/C (dose: 100.0 mg/kg/injection, schedule: Q01DX Z (ip), vehicle: carboxymethylcellulose (CMC)): 95 % of control
- T/C [3]: 95 % of control
- T/C (dose: 150.0 mg/kg/injection, schedule: Q01DX Z (ip), vehicle: methylcellulose (MC)): 112 % of control
- T/C [4]: 109 % of control
- T/C [5]: 96 % of control
- T/C (dose: 230.0 mg/kg/injection, schedule: Q01DX Z (ip), vehicle: methylcellulose (MC)): 97 % of control
- T/C [6]: 98 % of control
- T/C [7]: 106 % of control

Compound: CCOC(=O)c1cc([N+](=O)[O-])ccc1N=Nc1cc(OC)c(N)cc1OC
- T/C (dose: 100.0 mg/kg/injection, schedule: Q01DX001 (ip), vehicle: other): 111 % of control
- T/C (dose: 200.0 mg/kg/injection, schedule: Q01DX001 (ip), vehicle: other): 103 % of control
- T/C (dose: 400.0 mg/kg/injection, schedule: Q01DX001 (ip), vehicle: other): 103 % of control

Compound: [Si]c1ccccc1
- T/C [8]: 102 % of control
- T/C [9]: 93 % of control
- T/C (dose: 400.0 mg/kg/injection, schedule: Q04DX002 (ip), vehicle: saline with Tween-80): 98 % of control

Compound: NC(CSSCC(N)=NCCCCCSC12CC3CC(CC(C3)C1)C2)=NCCCCCSC12CC3CC(CC(C3)C1)C2
- T/C (dose: 2.5 mg/kg/injection, schedule: Q04DX002 (ip), vehicle: Klucel (hydroxypropylcellulose) (HPC)): 100 % of control
- T/C (dose: 5.0 mg/kg/injection, schedule: Q04DX002 (ip), vehicle: Klucel (hydroxypropylcellulose) (HPC)): 100 % of control
- T/C (dose: 10.0 mg/kg/injection, schedule: Q04DX002 (ip), vehicle: Klucel (hydroxypropylcellulose) (HPC)): 100 % of control and 90 % of control

Compound: NC(=O)CCP(=O)(CCC(N)=O)CCC(N)=O
- T/C [10]: 94 % of control
- T/C (dose: 50.0 mg/kg/injection, schedule: Q04DX003 (ip), vehicle: saline): 101 % of control
- T/C [11]: 94 % of control
- T/C (dose: 100.0 mg/kg/injection, schedule: Q04DX003 (ip), vehicle: saline): 103 % of control
- T/C (dose: 200.0 mg/kg/injection, schedule: Q01DX009 (ip), vehicle: saline): 90 % of control
- T/C (dose: 200.0 mg/kg/injection, schedule: Q04DX003 (ip), vehicle: saline): 95 % of control
- T/C (dose: 400.0 mg/kg/injection, schedule: Q04DX003 (ip), vehicle: saline): 98 % of control

Compound: C=CC(=O)NC12CC3CC(CC(C3)C1)C2
- T/C (dose: 100.0 mg/kg/injection, schedule: Q01DX001 (ip), vehicle: saline): 88 % of control
- T/C [2]: 104 % of control
- T/C (dose: 200.0 mg/kg/injection, schedule: Q01DX001 (ip), vehicle: saline): 93 % of control
- T/C [4]: 97 % of control
- T/C (dose: 400.0 mg/kg/injection, schedule: Q01DX001 (ip), vehicle: saline): 90 % of control
- T/C [6]: 101 % of control

Compound: O=C(O)CNCC(=O)O
- T/C (dose: 25.0 mg/kg/injection, schedule: Q01DX009 (ip), vehicle: saline): 103 % of control
- T/C [10]: 90 % of control
- T/C [11]: 93 % of control and 95 % of control
- T/C [3]: 105 % of control
- T/C [5]: 101 % of control
- T/C [7]: 105 % of control

Compound: c1ccc(CCNc2ncnc3[nH]ncc23)cc1
- T/C (dose: 12.0 mg/kg/injection, schedule: Q01DX015 (ip), vehicle: carboxymethylcellulose (CMC)): 97 % of control
- T/C (dose: 25.0 mg/kg/injection, schedule: Q01DX015 (ip), vehicle: carboxymethylcellulose (CMC)): 97 % of control
- T/C (dose: 50.0 mg/kg/injection, schedule: Q01DX015 (ip), vehicle: carboxymethylcellulose (CMC)): 95 % of control

Compound: COc1ccc(-n2c(=O)c(N=Nc3ccc(Cl)cc3)c(O)n(-c3ccc(C)cc3)c2=S)cc1
- T/C (dose: 37.5 mg/kg/injection, schedule: Q01DX001 (ip), vehicle: Klucel (hydroxypropylcellulose) (HPC)): 92 % of control
- T/C (dose: 75.0 mg/kg/injection, schedule: Q01DX001 (ip), vehicle: Klucel (hydroxypropylcellulose) (HPC)): 92 % of control
- T/C (dose: 150.0 mg/kg/injection, schedule: Q01DX001 (ip), vehicle: Klucel (hydroxypropylcellulose) (HPC)): 91 % of control

Compound: Cc1ccc2cc3c4ccccc4ccc3[n+](C)c2c1
- T/C (dose: 75.0 mg/kg/injection, schedule: Q01DX001 (ip), vehicle: carboxymethylcellulose (CMC)): 100 % of control
- T/C [12]: 100 % of control
- T/C (dose: 300.0 mg/kg/injection, schedule: Q01DX001 (ip), vehicle: carboxymethylcellulose (CMC)): 102 % of control

Compound: CCCCCCCCC(C)C
- T/C [8]: 100 % of control
- T/C [9]: 97 % of control

Compound: CC1(C)C(=O)C(O)=C[C@@]2(C)C1=CC[C@H]1[C@@H]3CC[C@H](O)[C@@]3(C)CC[C@@H]12
- T/C (dose: 100.0 mg/kg/injection, schedule: Q01DX001 (sc), vehicle: steriod suspending solution): 97 % of control
- T/C (dose: 200.0 mg/kg/injection, schedule: Q01DX001 (sc), vehicle: steriod suspending solution): 104 % of control
- T/C (dose: 400.0 mg/kg/injection, schedule: Q01DX001 (sc), vehicle: steriod suspending solution): 97 % of control

Compound: ONc1nc(NO)c2[nH]cnc2n1
- T/C (dose: 0.25 mg/kg/injection, schedule: Q01DX009 (ip), vehicle: other): 109 % of control
- T/C (dose: 1.2 mg/kg/injection, schedule: Q01DX009 (ip), vehicle: carboxymethylcellulose (CMC)): 115 % of control
- T/C (dose: 2.5 mg/kg/injection, schedule: Q01DX009 (ip), vehicle: other): 165 % of control
- T/C (dose: 3.7 mg/kg/injection, schedule: Q01DX009 (ip), vehicle: carboxymethylcellulose (CMC)): 150 % of control
- T/C (dose: 5.0 mg/kg/injection, schedule: Q01DX009 (ip), vehicle: other): 202 % of control
- T/C (dose: 10.0 mg/kg/injection, schedule: Q01DX009 (ip), vehicle: other): 210 % of control
- T/C (dose: 10.5 mg/kg/injection, schedule: Q01DX009 (ip), vehicle: other): 203 % of control
- T/C (dose: 18.0 mg/kg/injection, schedule: Q01DX009 (ip), vehicle: other): 265 % of control
- T/C (dose: 18.7 mg/kg/injection, schedule: Q01DX009 (oral), vehicle: carboxymethylcellulose (CMC)): 114 % of control
- T/C (dose: 30.0 mg/kg/injection, schedule: Q01DX009 (ip), vehicle: carboxymethylcellulose (CMC)): 150 % of control
- T/C (dose: 30.0 mg/kg/injection, schedule: Q01DX009 (ip), vehicle: other): 192 % of control
- T/C (dose: 44.0 mg/kg/injection, schedule: Q01DX001 (ip), vehicle: carboxymethylcellulose (CMC)): 154 % of control
- T/C (dose: 60.0 mg/kg/injection, schedule: Q01DX009 (ip), vehicle: carboxymethylcellulose (CMC)): 150 % of control and 153 % of control
- T/C (dose: 66.0 mg/kg/injection, schedule: Q01DX001 (ip), vehicle: carboxymethylcellulose (CMC)): 172 % of control
- T/C (dose: 75.0 mg/kg/injection, schedule: Q01DX009 (oral), vehicle: carboxymethylcellulose (CMC)): 122 % of control
- T/C [1]: 175 % of control
- T/C [12]: 214 % of control

Compound: O=S(=O)(Nc1ccccn1)c1ccccc1
- T/C (dose: 200.0 mg/kg/injection, schedule: Q01DX009 (ip), vehicle: Klucel (hydroxypropylcellulose) (HPC)): 103 % of control
- T/C (dose: 400.0 mg/kg/injection, schedule: Q01DX009 (ip), vehicle: Klucel (hydroxypropylcellulose) (HPC)): 98 % of control

Compound: COc1cccc(OC)c1OC(=O)NS(=O)(=O)c1ccc(Cl)cc1
- T/C [2]: 116 % of control
- T/C [3]: 104 % of control
- T/C [4]: 98 % of control
- T/C [5]: 97 % of control
- T/C [6]: 106 % of control
- T/C [7]: 103 % of control
